# In patent US11208412B2 (DAEGU-GYEONGBUK MEDICAL INNOVATION FOUNDATION, priority 2017, dated 2021):
# Key:
# Experiment in all cases: Kinase selectivity, DiscoverX scanMAX Kinase assay panel (% control)
# Format in all cases: binding
# [1] = target: T1, kinases of the scanMAX Kinase assay panel (Homo sapiens, UniProt Q9H4B4); details: PLK3; 1 uM
# T1 construct: purchased DiscoverX Co. (contract measurement) scanMAX Kinase assay panel
# Procedure, shortened: (§1)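 Single-point screen, 1 uM cpd in DMSO. % ctrl = (cpd − pos ctrl)/(neg ctrl − pos ctrl)×100; pos ctrl = 0%, DMSO neg ctrl = 100%. Hit cutoff <35%.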
# [2] = target: T2, kinases of the scanMAX Kinase assay panel (Homo sapiens, UniProt Q00526); details: CDK3; 1 uM
# T2 construct: purchased DiscoverX Co. (contract measurement) scanMAX Kinase assay panel
# Procedure, shortened: as §1
# [3] = target: T3, kinases of the scanMAX Kinase assay panel (Homo sapiens, UniProt Q6P3R8); details: NEK5; 1 uM
# T3 construct: purchased DiscoverX Co. (contract measurement) scanMAX Kinase assay panel
# T3 sequence (Q6P3R8 1-708): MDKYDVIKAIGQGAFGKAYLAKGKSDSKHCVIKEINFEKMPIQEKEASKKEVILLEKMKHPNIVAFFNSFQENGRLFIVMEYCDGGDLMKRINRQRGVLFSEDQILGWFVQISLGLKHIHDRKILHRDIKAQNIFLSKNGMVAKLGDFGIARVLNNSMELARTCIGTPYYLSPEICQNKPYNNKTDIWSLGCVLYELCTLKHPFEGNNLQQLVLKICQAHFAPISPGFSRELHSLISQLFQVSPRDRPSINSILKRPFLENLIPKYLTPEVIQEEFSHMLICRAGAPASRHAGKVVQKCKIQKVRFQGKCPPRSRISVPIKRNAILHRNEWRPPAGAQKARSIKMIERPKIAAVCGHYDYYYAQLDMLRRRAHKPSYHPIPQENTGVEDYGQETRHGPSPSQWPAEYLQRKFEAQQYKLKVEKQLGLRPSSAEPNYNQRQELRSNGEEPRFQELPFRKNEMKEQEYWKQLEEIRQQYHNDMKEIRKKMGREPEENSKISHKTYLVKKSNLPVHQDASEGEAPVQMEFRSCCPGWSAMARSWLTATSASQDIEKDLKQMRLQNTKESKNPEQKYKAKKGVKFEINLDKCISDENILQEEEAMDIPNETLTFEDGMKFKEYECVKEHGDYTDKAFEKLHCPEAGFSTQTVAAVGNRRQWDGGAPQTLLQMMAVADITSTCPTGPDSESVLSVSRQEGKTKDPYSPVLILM
# Procedure, shortened: as §1
# [4] = target: T4, kinases of the scanMAX Kinase assay panel (Homo sapiens, UniProt P49674); details: CSNK1E; 1 uM
# T4 construct: purchased DiscoverX Co. (contract measurement) scanMAX Kinase assay panel
# Procedure, shortened: as §1
# [5] = target: T5, kinases of the scanMAX Kinase assay panel (Homo sapiens, UniProt P10721, D816V); details: KIT(D816V); 1 uM
# T5 construct: purchased DiscoverX Co. (contract measurement) scanMAX Kinase assay panel
# Procedure, shortened: as §1
# [6] = target: T6, kinases of the scanMAX Kinase assay panel (Homo sapiens, UniProt Q6PHR2); details: kinase ULK3; 1 uM in DMSO
# T6 construct: purchased DiscoverX Co. (contract measurement) scanMAX Kinase assay panel
# T6 sequence (Q6PHR2 1-472): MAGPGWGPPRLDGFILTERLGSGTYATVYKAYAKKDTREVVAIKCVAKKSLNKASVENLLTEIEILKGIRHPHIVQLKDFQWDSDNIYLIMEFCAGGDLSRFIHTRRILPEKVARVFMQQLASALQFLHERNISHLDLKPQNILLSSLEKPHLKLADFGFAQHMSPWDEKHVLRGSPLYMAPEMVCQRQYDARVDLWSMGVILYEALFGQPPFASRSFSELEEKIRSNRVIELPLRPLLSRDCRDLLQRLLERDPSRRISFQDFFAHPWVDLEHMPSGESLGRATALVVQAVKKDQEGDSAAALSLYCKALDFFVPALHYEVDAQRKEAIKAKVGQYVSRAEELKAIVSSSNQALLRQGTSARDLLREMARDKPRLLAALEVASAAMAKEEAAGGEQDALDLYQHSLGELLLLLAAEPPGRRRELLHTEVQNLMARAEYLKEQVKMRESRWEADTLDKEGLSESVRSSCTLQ
# Procedure, shortened: as §1
# [7] = target: T7, kinases of the scanMAX Kinase assay panel (Homo sapiens, UniProt P22607); details: FGFR3; 1 uM
# T7 construct: purchased DiscoverX Co. (contract measurement) scanMAX Kinase assay panel
# Procedure, shortened: as §1
# [8] = target: T8, kinases of the scanMAX Kinase assay panel (Homo sapiens, UniProt Q8TBX8); details: PIP5K2C; 1 uM
# T8 construct: purchased DiscoverX Co. (contract measurement) scanMAX Kinase assay panel
# T8 sequence (Q8TBX8 1-421): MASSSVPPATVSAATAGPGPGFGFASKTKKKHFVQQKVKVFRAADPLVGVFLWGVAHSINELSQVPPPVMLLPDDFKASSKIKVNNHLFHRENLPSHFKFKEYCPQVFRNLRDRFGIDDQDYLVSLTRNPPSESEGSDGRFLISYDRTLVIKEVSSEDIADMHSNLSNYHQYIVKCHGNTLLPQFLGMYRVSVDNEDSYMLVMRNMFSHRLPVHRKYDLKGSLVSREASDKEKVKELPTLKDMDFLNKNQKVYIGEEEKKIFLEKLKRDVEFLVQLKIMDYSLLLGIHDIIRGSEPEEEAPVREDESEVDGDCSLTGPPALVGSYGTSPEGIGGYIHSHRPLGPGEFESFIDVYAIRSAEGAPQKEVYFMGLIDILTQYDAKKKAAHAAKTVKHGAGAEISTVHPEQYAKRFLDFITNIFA
# Procedure, shortened: as §1
# [9] = target: T9, kinases of the scanMAX Kinase assay panel (Homo sapiens, UniProt P48729); details: CSNK1A1; 1 uM
# T9 construct: purchased DiscoverX Co. (contract measurement) scanMAX Kinase assay panel
# Procedure, shortened: as §1
# [10] = target: T10, kinases of the scanMAX Kinase assay panel (Homo sapiens, UniProt P10721, D816H); details: KIT(D816H); 1 uM
# T10 construct: purchased DiscoverX Co. (contract measurement) scanMAX Kinase assay panel
# Procedure, shortened: as §1
# [11] = target: T11, kinases of the scanMAX Kinase assay panel (Homo sapiens, UniProt Q9BYT3); details: kinase STK33; 1 uM in DMSO
# T11 construct: purchased DiscoverX Co. (contract measurement) scanMAX Kinase assay panel
# Procedure, shortened: as §1
# T4 sequence (P49674 whole entry): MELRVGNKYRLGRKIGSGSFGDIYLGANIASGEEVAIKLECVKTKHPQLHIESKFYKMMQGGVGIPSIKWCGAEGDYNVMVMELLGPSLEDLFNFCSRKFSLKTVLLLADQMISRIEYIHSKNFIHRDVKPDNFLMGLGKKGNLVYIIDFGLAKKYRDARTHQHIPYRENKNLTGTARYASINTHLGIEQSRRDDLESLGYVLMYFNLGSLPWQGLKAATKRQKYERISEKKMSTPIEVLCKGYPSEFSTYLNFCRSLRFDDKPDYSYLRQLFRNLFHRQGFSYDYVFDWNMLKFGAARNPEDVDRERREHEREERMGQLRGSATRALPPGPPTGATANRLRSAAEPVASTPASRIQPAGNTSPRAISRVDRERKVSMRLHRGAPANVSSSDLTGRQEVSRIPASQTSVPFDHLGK
# T2 sequence (Q00526 whole entry): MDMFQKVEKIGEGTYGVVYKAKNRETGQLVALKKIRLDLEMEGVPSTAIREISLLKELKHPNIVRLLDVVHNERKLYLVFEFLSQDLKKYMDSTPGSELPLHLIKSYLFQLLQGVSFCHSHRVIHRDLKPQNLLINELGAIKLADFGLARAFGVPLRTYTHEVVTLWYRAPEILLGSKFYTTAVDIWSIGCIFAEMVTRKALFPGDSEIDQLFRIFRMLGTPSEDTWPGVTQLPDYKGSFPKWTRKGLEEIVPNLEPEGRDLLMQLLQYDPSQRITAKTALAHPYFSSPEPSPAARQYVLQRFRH
# T10 sequence (P10721 26-976 D816H): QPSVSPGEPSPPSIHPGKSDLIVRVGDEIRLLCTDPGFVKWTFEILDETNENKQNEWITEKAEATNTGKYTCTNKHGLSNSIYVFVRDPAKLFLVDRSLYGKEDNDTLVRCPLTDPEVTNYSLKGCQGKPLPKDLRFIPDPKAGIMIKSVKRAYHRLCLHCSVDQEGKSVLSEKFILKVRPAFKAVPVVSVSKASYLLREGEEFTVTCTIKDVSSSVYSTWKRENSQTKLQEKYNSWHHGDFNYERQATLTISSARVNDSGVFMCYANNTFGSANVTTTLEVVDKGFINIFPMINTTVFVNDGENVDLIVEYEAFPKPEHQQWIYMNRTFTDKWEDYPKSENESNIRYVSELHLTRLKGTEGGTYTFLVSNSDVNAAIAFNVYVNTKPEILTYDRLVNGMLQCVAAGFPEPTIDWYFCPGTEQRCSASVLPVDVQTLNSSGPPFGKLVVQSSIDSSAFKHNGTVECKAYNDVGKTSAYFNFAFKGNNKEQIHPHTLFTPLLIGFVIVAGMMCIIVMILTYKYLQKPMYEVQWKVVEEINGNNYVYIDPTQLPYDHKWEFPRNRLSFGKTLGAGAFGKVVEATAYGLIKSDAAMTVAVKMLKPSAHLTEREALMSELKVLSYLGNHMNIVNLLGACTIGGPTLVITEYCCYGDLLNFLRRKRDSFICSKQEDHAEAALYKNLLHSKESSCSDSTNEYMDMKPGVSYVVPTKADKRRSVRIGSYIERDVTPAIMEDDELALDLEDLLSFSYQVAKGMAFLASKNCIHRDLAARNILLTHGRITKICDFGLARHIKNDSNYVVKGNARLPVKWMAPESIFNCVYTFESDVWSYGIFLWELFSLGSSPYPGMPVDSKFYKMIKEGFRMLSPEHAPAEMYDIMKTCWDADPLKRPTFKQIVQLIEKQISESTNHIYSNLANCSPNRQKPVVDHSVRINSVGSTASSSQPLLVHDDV
# T9 sequence (P48729 whole entry): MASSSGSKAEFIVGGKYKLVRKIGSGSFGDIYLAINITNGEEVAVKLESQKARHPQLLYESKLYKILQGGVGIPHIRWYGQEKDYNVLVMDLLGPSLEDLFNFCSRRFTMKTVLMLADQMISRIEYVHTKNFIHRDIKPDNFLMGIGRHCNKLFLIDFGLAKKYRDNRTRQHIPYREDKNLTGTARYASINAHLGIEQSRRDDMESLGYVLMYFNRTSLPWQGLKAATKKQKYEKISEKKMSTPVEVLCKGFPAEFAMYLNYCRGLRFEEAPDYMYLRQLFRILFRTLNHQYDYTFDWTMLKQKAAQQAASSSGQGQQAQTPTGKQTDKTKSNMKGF
# T7 sequence (P22607 23-806): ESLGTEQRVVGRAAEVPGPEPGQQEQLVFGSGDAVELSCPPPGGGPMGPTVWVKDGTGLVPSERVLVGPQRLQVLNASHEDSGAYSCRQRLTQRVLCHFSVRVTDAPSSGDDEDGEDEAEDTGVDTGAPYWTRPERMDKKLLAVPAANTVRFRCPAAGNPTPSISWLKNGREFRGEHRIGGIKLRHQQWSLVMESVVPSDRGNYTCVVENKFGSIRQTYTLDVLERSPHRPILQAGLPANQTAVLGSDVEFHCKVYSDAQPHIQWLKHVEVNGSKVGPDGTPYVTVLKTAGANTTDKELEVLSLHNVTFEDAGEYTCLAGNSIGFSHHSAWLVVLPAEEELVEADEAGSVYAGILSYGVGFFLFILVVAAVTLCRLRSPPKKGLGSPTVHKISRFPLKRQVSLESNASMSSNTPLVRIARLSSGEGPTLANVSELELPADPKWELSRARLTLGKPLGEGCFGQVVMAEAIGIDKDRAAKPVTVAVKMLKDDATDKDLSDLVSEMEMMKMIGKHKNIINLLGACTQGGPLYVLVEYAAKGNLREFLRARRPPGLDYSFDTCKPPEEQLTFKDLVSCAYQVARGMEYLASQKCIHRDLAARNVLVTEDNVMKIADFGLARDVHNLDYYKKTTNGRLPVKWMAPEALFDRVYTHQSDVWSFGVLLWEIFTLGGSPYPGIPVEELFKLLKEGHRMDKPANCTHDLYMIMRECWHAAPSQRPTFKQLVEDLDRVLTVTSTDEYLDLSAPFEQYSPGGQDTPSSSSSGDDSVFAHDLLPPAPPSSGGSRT
# T11 sequence (Q9BYT3 whole entry): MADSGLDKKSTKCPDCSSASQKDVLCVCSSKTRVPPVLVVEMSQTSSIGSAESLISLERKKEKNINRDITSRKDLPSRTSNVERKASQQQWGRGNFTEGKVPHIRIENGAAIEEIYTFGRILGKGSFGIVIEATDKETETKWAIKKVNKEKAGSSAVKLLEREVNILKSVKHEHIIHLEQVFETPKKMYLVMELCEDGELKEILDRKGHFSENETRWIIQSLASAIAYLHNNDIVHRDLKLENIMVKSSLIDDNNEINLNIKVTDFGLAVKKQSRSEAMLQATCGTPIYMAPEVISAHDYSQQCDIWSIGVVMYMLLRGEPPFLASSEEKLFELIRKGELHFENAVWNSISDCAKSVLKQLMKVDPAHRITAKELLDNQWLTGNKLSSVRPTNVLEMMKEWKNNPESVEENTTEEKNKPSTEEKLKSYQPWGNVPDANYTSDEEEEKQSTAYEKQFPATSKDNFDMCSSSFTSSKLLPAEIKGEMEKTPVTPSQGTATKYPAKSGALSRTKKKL
# T5 sequence (P10721 26-976 D816V): as the sequence (P10721 26-976 D816H) above, with H791V counted along it
# T1 sequence (Q9H4B4 whole entry): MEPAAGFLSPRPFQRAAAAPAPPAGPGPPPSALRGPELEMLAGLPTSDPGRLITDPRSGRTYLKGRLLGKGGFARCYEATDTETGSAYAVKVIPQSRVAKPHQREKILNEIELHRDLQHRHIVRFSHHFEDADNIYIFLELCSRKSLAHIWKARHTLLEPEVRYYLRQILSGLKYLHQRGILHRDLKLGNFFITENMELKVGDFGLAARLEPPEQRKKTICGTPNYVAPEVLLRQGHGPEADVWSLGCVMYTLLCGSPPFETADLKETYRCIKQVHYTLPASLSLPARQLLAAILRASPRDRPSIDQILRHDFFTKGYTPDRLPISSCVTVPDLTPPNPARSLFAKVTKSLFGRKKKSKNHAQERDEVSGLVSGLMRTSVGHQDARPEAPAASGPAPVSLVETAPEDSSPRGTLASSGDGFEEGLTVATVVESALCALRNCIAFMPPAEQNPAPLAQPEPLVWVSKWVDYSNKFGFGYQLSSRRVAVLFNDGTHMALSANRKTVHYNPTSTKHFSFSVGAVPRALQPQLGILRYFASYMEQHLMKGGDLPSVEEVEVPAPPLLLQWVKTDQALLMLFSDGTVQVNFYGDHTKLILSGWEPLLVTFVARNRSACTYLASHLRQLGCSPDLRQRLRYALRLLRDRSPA
SMILES,remaining binding at 1 µM [1],remaining binding at 1 µM [2],remaining binding at 1 µM [3],remaining binding at 1 µM [4],remaining binding at 1 µM [5],remaining binding at 1 µM [6],remaining binding at 1 µM [7],remaining binding at 1 µM [8],remaining binding at 1 µM [9],remaining binding at 1 µM [10],remaining binding at 1 µM [11]
"CNc1nc(Nc2ccc(C(=O)N3CCOCC3)cc2OC)nc2[nH]cc(C#N)c12 [Example 1, 2-((2-methoxy-4-(morpholine-4-carbonyl)phenyl)amino)-4-(methylamino)-7H-pyrrolo[2,3-d]pyrimidine-5-carbonitrile]",57%,100%,98%,12%,89%,62%,100%,4.5%,19%,77%,18%
"CC1(Nc2nc(Nc3cnn([C@H]4CCN(C5COC5)C[C@@H]4F)c3Cl)nc3[nH]cc(C#N)c23)CC1 [Example 52, 2-((5-chloro-1-((3S,4S)-3-fluoro-1-(oxetane-3-yl)piperidine-4-yl)-1H-pyrazole-4-yl)amino)((1-methylcyclopropyl)amino)-7H-pyrrolo[2,3-d]pyrimidine-5-carbonitrile]",99%,76%,99%,0.15%,0.15%,0.2%,9.8%,0%,1.6%,8.1%,4%
"CCNc1nc(Nc2ccc(C(=O)N3CCC(N4CCOCC4)CC3)cc2OC)nc2[nH]cc(C(F)(F)F)c12 [Example 104, (4-((4-(ethylamino)-5-(trifluoromethyl)-7H-pyrrolo[2,3-d]pyrimidine-2-yl)amino)-3-methoxyphenyl)(4-morpholinopiperidine-1-yl)methanone]",89%,93%,95%,4.2%,99%,100%,100%,77%,56%,100%,13%
